Assay [1] deals with T1, hD2 recombinant receptor (human dopamine receptor type 2, long variant, CHO-Gα16-hD2L membranes) (Homo sapiens (Human), UniProt P14416). As to the kind of experiment: biochemical.
For assay [2], the target named is hD2 recombinant receptor (human dopamine receptor type 2, long variant, CHO-Gα16-hD2L cells) (Homo sapiens (Human), UniProt P14416). Briefly: cell-based. As to conditions: D2 fpKi, functional pKi; antagonism of dopamine EC80 calcium response (FLIPR).
The target in assay [3] is T1, hD2 recombinant receptor (human dopamine receptor type 2, long variant, CHO-Gα16-hD2L membranes). As to conditions: displacement of 0.08 nM [3H]-Spiperone.

Where a name gives a salt, the structure may show the parent alone. Where only a bound is given, the exact number is not on record here.

On to `Cn1c(SCCCN2CC[C@]3(C[C@@H]3c3ccc(C(F)(F)F)cc3)C2)nnc1-c1ccc(CC#N)cc1` (single isomer, unassigned) [Example 286], for which, in assay [1], the Ki is 468 nM. The same measure, in the same setting: the value for `Cn1c(SCCCN2CC[C@@]3(C[C@H]3c3ccc(C(F)(F)F)cc3F)C2)nnc1-c1ccc(C(N)=O)nc1` (single isomer, unassigned) [Example 186] was 4900 nM; that for `Cn1c(SCCCN2CC[C@]3(C[C@@H]3c3ccc(C(F)(F)F)cc3)C2)nnc1-c1ccnc(C(N)=O)c1` (single isomer, unassigned) [Example 191] was 513 nM. With `Cn1c(SCCCN2CC[C@]3(C[C@@H]3c3ccc(C(F)(F)F)cc3)C2)nnc1-c1ccnc(C#N)c1` (single isomer, unassigned) [Example 178], in assay [1], the Ki is 794 nM.

Turning to `Cn1c(SCCCN2CC[C@]3(C[C@@H]3c3ccc(C(F)(F)F)cc3F)C2)nnc1-c1ccc(C(N)=O)nc1` (single isomer, unassigned) [Example 185], the Ki in assay [1] is 1230 nM. Turning to `Cn1c(SCCCN2CC[C@]3(C[C@@H]3c3ccc(C(F)(F)F)cc3)C2)nnc1-c1cnc(-c2cccnc2)o1` (single isomer, unassigned) [Example 263], in assay [1], the Ki is 589 nM.

Take `Cn1c(SCCCN2CC[C@]3(C[C@@H]3c3ccc(C(F)(F)F)cc3)C2)nnc1-c1ccc(-c2nnn[nH]2)cc1` (single isomer, unassigned) [Example 273]: in assay [1], the Ki is 3160 nM. For `Cc1nc(-c2ccc(-c3nnc(SCCCN4CC[C@]5(C[C@@H]5c5ccc(C(F)(F)F)cc5)C4)n3C)cc2)no1` (single isomer, unassigned) [Example 275], in assay [1], the Ki was 479 nM. Regarding `Cn1c(OCCCN2CC[C@]3(C[C@H]3c3ccc(C(F)(F)F)cc3)C2)nnc1C1CCOCC1` [Example 303, (1S,3S/1R,3R)-5-(3-{[4-methyl-5-(oxan-4-yl)-4H-1,2,4-triazol-3-yl]oxy}-propyl)-1-[4-(trifluoromethyl)phenyl]-5-azaspiro[2.4]heptane], the Ki in assay [2] was greater than 10000 nM. On the same count and under the same terms, in the case of `Cn1c(SCCCN2CC[C@]3(C[C@@H]3c3ccccc3)C2)nnc1C1CCOCC1` (single isomer, unassigned) [Example 83, hydrochloride] it was greater than 10000 nM; in that of `Cc1ncoc1-c1nnc(SCCCN2CCC[C@]3(C[C@H]3c3ccc(C(F)(F)F)cc3)C2)n1C` (racemic) [Example 310, (1R,3S/1S,3R)-5-(3-{[4-methyl-5-(4-methyl-1,3-oxazol-5-yl)-4H-1,2,4-triazol-3-yl]sulfanyl}propyl)-1-[4-(trifluoromethyl)phenyl]-5-azaspiro[2.5]octane], 19.1 nM. Turning to `Cn1c(SCCCN2CC[C@]3(C[C@@H]3c3ccc(C(F)(F)F)cc3)C2)nnc1-c1cccc(C(N)=O)n1` (single isomer, unassigned) [Example 193], the Ki in assay [1] is 437 nM. `CC(=O)N1CCC(c2nnc(SCCCN3CC[C@]4(C[C@@H]4c4ccc(C(F)(F)F)cc4)C3)n2C)CC1` (single isomer, unassigned) [Example 100]: the Ki in assay [2] is 1170 nM.

Take `Cn1c(SCCCN2CC[C@]3(C[C@@H]3c3ccc(C(F)(F)F)cc3)C2)nnc1-c1ccc(Oc2ccccc2)nc1` (single isomer, unassigned) [Example 265]: in assay [1], the Ki is 589 nM.

Turning to `Cc1ncoc1-c1nnc(SCCCN2CCC3(CC2)C[C@@H]3c2ccccc2)n1C` (single isomer, unassigned) [Example 309, (1S or 1R)-6-(3-{[4-methyl-5-(4-methyl-1,3-oxazol-5-yl)-4H-1,2,4-triazol-3-yl]sulfanyl}propyl)-1-phenyl-6-azaspiro[2.5]octane hydrochloride], the Ki in assay [2] was 1120 nM. For the molecule `Cn1c(SCCCN2CC[C@]3(C[C@@H]3c3ccc(C(F)(F)F)cc3)C2)nnc1-c1cncc(C(N)=O)c1` (single isomer, unassigned) [Example 192], in assay [1], the inhibitory constant (Ki) was 437 nM. Consider `Cn1c(SCCCN2CC[C@]3(C[C@H]3c3ccc(C(F)(F)F)cc3F)C2)nnc1C1CCOCC1` (single isomer, unassigned) [Example 75, (1R,3S or 1S,3R)-1-[2-fluoro-4-(trifluoromethyl)phenyl]-5-(3-{[4-methyl-5-(oxan-4-yl)-4H-1,2,4-triazol-3-yl]sulfanyl}propyl)-5-azaspiro[2.4]heptane hydrochloride], for which the Ki in assay [2] is greater than 10000 nM. `Cn1c(SCCCN2CC[C@]3(C[C@@H]3c3ccc(C(F)(F)F)cc3)C2)nnc1-c1ccc(-n2cnnc2)cc1` (single isomer, unassigned) [Example 276]: in assay [1], the Ki was 166 nM. The same measure, in the same setting: the value for `Cn1c(SCCCN2CC[C@]3(C[C@@H]3c3ccc(C(F)(F)F)cc3F)C2)nnc1-c1ccc(C(N)=O)cn1` (single isomer, unassigned) [Example 190] was 275 nM. Same read-out and setting: in the case of `Cc1ncoc1-c1nnc(CCCCN2CC[C@]3(C[C@@H]3c3ccc(C(F)(F)F)cc3)C2)n1C` (single isomer, unassigned) [Example 302, hydrochloride] it was 1150 nM. As for `Cn1c(SCCCN2CC[C@]3(C[C@@H]3c3ccc(C(F)(F)F)cc3)C2)nnc1-c1ccc2[nH]cnc2n1` (single isomer, unassigned) [Example 272], the Ki in assay [1] is 95.5 nM. In the case of `Cn1c(CCCCN2CC[C@]3(C[C@@H]3c3ccc(C(F)(F)F)cc3F)C2)nnc1C1CCOCC1` (single isomer, unassigned) [Example 295, hydrochloride], the Ki in assay [2] was 871 nM. As to `Cn1c(SCCCN2CC[C@]3(CC3c3ccccc3)C2)nnc1C1CCOCC1` (stereo partly drawn) [Example 80, (1R,3S/1S,3R)-5-(3-{[4-methyl-5-(oxan-4-yl)-4H-1,2,4-triazol-3-yl]-sulfanyl}propyl)-1-phenyl-5-azaspiro[2.4]heptane], the Ki in assay [2] is greater than 10000 nM. Turning to `Cc1nccnc1-c1nnc(SCCCN2CC[C@]3(C[C@@H]3c3ccc(C(F)(F)F)cc3)C2)n1C` (single isomer, unassigned) [Example 227, hydrochloride], the Ki in assay [1] was 575 nM.

In the case of `Cn1c(SCCCN2CC[C@]3(CC3c3ccc(C(F)(F)F)cc3F)C2)nnc1C1CCOCC1` (single isomer, unassigned) [Example 76], the inhibition constant (Ki) in assay [2] is 708 nM.

For the molecule `Cc1ncoc1-c1nnc(SCCCN2CCC[C@]3(C[C@@H]3c3ccc(C(F)(F)F)cc3)C2)n1C` [Example 313, (1S,3S/1R,3R)-5-(3-{[4-methyl-5-(4-methyl-1,3-oxazol-5-yl)-4H-1,2,4-triazol-3-yl]sulfanyl}propyl)-1-[4-(trifluoromethyl)phenyl]-5-azaspiro[2.5]octane], the Ki in assay [2] was greater than 10000 nM.

In the case of `Cn1c(CCCCN2CC[C@]3(CC3c3ccc(C(F)(F)F)cc3)C2)nnc1C1CCOCC1` (stereo partly drawn) [Example 296, (1S,3S/1R,3R)-5-{4-[4-methyl-5-(oxan-4-yl)-4H-1,2,4-triazol-3-yl]butyl}-1-[4-(trifluoromethyl)phenyl]-5-azaspiro[2.4]heptane], the Ki in assay [2] is greater than 10000 nM. Still for that read-out and setting: the value for `Cn1c(SCCCN2CC[C@]3(CC3c3ccc(C(F)(F)F)cc3F)C2)nnc1C1CCOCC1` (single isomer, unassigned) [Example 71] was greater than 10000 nM. As to `Cc1cccnc1-c1nnc(SCCCN2CC[C@]3(C[C@@H]3c3ccc(C(F)(F)F)cc3)C2)n1C` (single isomer, unassigned) [Example 170, dihydrochloride], the Ki in assay [1] was 1410 nM. Turning to `Cn1c(SCCCN2CC[C@]3(CC3c3ccc(C(F)(F)F)cc3)C2)nnc1N1CCOCC1` (single isomer, unassigned) [Example 115], in assay [2], the Ki was 97.7 nM. As to `CC(=O)N1CCC(c2nnc(SCCCN3CC[C@]4(C[C@@H]4c4ccc(C(F)(F)F)cc4)C3)n2C)CC1` [Example 99, 1-{4-[4-methyl-5-({3-[(1R,3S/1S,R3)-1-[4-(trifluoromethyl)phenyl]-5-azaspiro[2.4]heptan-5-yl]propyl}sulfanyl)-4H-1,2,4-triazol-3-yl]piperidin-1-yl}ethan-1-one], the Ki in assay [2] was 2240 nM. Same read-out and setting: the value for `Cn1c(SCCCN2CC[C@]3(CC3c3ccc(C(F)(F)F)cc3)C2)nnc1N1CCOCC1` (single isomer, unassigned) [Example 114, hydrochloride] was 1620 nM. As to `Cn1c(SCCCN2CC[C@]3(C[C@@H]3c3ccc(C(F)(F)F)cc3)C2)nnc1-c1ccc(C(N)=O)cn1` (single isomer, unassigned) [Example 189, dihydrochloride], the Ki in assay [1] was 437 nM. For the molecule `Cn1c(SCCCN2CC[C@]3(CC3c3ccc(C(F)(F)F)cc3F)C2)nnc1-c1cnccn1` (stereo partly drawn) [Example 221, (1S,3S/1R,3R)-1-[2-fluoro-4-(trifluoromethyl)phenyl]-5-(3-{[4-methyl-5-(pyrazin-2-yl)-4H-1,2,4-triazol-3-yl]sulfanyl}propyl)-5-azaspiro[2.4]heptane], the Ki in assay [2] was 87.1 nM. The “D2 pKi” value in assay [3] amounted to 6.37. `Cn1c(SCCCN2CC[C@]3(C[C@@H]3c3ccc(C(F)(F)F)cc3)C2)nnc1-c1ccn2cnnc2c1` (single isomer, unassigned) [Example 269]: in assay [1], the Ki was 1000 nM.

In the case of `Cc1ncoc1-c1nnc(SCCCN2CCC3(CCC3c3ccccc3)C2)n1C` (single isomer, unassigned) [Example 321, (1R,4S or 1S,4R or 1S,4S or 1R,4R)-6-(3-{[4-methyl-5-(4-methyl-1,3-oxazol-5-yl)-4H-1,2,4-triazol-3-yl]sulfanyl}propyl)-1-phenyl-6-azaspiro[3.4]octane hydrochloride], the Ki in assay [2] was 2240 nM.

With `Cn1c(SCCCN2CC[C@]3(C[C@@H]3c3ccc(C(F)(F)F)cc3)C2)nnc1N1CCOCC1` (single isomer, unassigned) [Example 118, hydrochloride], the Ki is 251 nM in assay [1] and 41.7 nM in assay [2].

The Ki is a dissociation constant, usually derived from enzyme kinetics or from competition with a known ligand.

Values taken from US10239870B2, “Dopamine D3 receptor antagonists” (priority 2014, dated 2019).
